In patent publication US6465457B1 (priority 1991, dated 2002):
Like-named read-outs stand apart in the source and are kept apart here.

What was measured:
Assay type in all cases: in vivo
[1] = tested on: Septoria nodorum (Wheat); test: Foliar fungal disease test on plants: Septoria nodorum (Wheat); settings: one or two days before inoculation
Method: (§1) The compounds were tested against a variety of foliar fungal diseases of plants. The technique employed was as follows.
(§2) The plants were grown in John Innes Potting Compost (No 1 or 2) in 4 cm diameter minipots. The test compounds were formulated either by bead milling with aqueous DISPERSOL T or as a solution in acetone or acetone/ethanol which was diluted to the required concentration immediately before use. […] The sprays were applied to maximum retention and the root drenches to a final concentration equivalent to approximately 40 ppm a.i. in dry soil. TWEEN 20 was added to give a final concentration of 0.05% when the sprays were applied to cereals.
(§3) For most of the tests the compounds were applied to the soil (roots) or to the foliage (by spraying) one or two days before the plant was inoculated with the disease. An exception was the test on Erysiphe graminis in which the plants were inoculated 24 hours before treatment. Foliar pathogens were applied by spray as zoosporangial suspensions onto the leaves of test plants. After inoculation, the plants were put into an appropriate environment to allow infection to proceed and then incubated until the disease was ready for assessment. The period between inoculation and assessment varied from four to fourteen days according to the disease and environment.
(§4) The disease level present (i.e. leaf area covered by actively sporulating disease) on each of the treated plants was recorded using the following assessment scale:
(§5) Each assessment was then expressed as a percentage of the level of disease present on the untreated control plants. This calculated value is referred to as a POCO (Percentage of Control) value. An example of a typical calculation is as follows:
(§6) Disease level on untreated control=90
(§7) Disese level on treated plant=30 [formula]
(§8) This calculated POCO value is then rounded to the nearest of the values in the 9-point assessment scale shown above. In this particular example, the POCO value would be rounded to 30. If the calculated POCO falls exactly mid-way between two of the points, it is rounded to the lower of the two values.

[2] = tested on: Phytophthora infestans (Tomatoes); settings: one or two days before inoculation
[3] = tested on: Pyricularia oryzae (Rice); settings: one or two days before inoculation
[4] = tested on: Plasmopara viticola (Vines); test: Foliar fungal disease test on plants: Plasmopara viticola (Vines); settings: one or two days before inoculation
Method: as §1, §2, §3, §4, §5, §6, §7, §8

[5] = tested on: Erysiphe graminis tritici (Wheat); test: Foliar fungal disease test on plants: Erysiphe graminis tritici (Wheat); settings: plants inoculated 24 hours before treatment
Method: as §1, §2, §3, §4, §5, §6, §7, §8

[6] = tested on: Puccinia recondita (Wheat); test: Foliar fungal disease test on plants: Puccinia recondita (Wheat)
Method: as §1
The plants were grown in John Innes Potting Compost (No 1 or 2) in 4 cm diameter minipots. The test compounds were formulated either by bead milling with aqueous DISPERSOL T or as a solution in acetone or acetone/ethanol which was diluted to the required concentration immediately before use. The formulations (100 ppm active ingredient) were sprayed on to the foliage or applied to the roots of the plants in the soil. The sprays were applied to maximum retention and the root drenches to a final concentration equivalent to approximately 40 ppm a.i. in dry soil. TWEEN 20 was added to give a final concentration of 0.05% when the sprays were applied to cereals.
as §3, with “For most of the tests the compounds were applied to the soil (roots) or to the foliage (by spraying) one or two days before the plant was inoculated with the disease.” left out
as §4, §5, §6, §7, §8

[7] = tested on: Venturia inaequalis (Apples); test: Foliar fungal disease test on plants: Venturia inaequalis (Apples); settings: one or two days before inoculation
Method: as §1, §2, §3, §4, §5, §6, §7, §8

[8] = tested on: Thanatephorus cucumeries (Rice); test: Foliar fungal disease test on plants: Thanatephorus cucumeries (Rice); settings: one or two days before inoculation
Method: as §1, §2, §3, §4, §5, §6, §7, §8

[9] = 100 ppm a.i. foliar spray or root drench (approx. 40 ppm in dry soil)
[10] = 100 ppm a.i. foliar spray or root drench (approx. 40 ppm in dry soil), one or two days before inoculation
[11] = 10 ppm foliar spray only, plants inoculated with Puccinia recondita 48 hours before treatment
[12] = 100 ppm a.i. foliar spray or root drench, plants inoculated with Puccinia recondita 48 hours before treatment

SMILES	POCO (Percentage of Control) disease level, Septoria nodorum (Wheat) [1, 9]	POCO (Percentage of Control) disease level, Phytophthora infestans (Tomatoes) [2, 9]	POCO (Percentage of Control) disease level, Pyricularia oryzae (Rice) [3, 9]	POCO (Percentage of Control) disease level, Plasmopara viticola (Vines) [4, 9]	POCO (Percentage of Control) disease level, Erysiphe graminis tritici (Wheat) [5, 9]	POCO (Percentage of Control) disease level, Puccinia recondita (Wheat) [6, 10]	POCO (Percentage of Control) disease level, Venturia inaequalis (Apples) [7, 9]	POCO (Percentage of Control) disease level, Septoria nodorum (Wheat) ([1]; 10 ppm foliar spray only)	POCO (Percentage of Control) disease level, Phytophthora infestans (Tomatoes) ([2]; 10 ppm foliar spray only)	POCO (Percentage of Control) disease level, Pyricularia oryzae (Rice) ([3]; 10 ppm foliar spray only)	POCO (Percentage of Control) disease level, Plasmopara viticola (Vines) ([4]; 10 ppm foliar spray only)	POCO (Percentage of Control) disease level, Thanatephorus cucumeries (Rice) ([8]; 10 ppm foliar spray only)	POCO (Percentage of Control) disease level, Erysiphe graminis tritici (Wheat) ([5]; 10 ppm foliar spray only)	POCO (Percentage of Control) disease level, Puccinia recondita (Wheat) [6, 11]	POCO (Percentage of Control) disease level, Venturia inaequalis (Apples) ([7]; 10 ppm foliar spray only)	POCO (Percentage of Control) disease level, Thanatephorus cucumeries (Rice) [8, 9]	POCO (Percentage of Control) disease level, Puccinia recondita (Wheat) ([6]; 10 ppm foliar spray only, one or two days before inoculation)	POCO (Percentage of Control) disease level, Puccinia recondita (Wheat) [6, 12]
CO/C=C(/Oc1ccccc1OC(=O)NC(=O)c1ccccc1)C(=O)OC [1 (17), (E)-methyl 2-[2-((benzoyl)carbamoyloxy)phenoxy]-3-methoxypropenoate]	94 (90 and 94 = 60.1-100% disease present)	24 (20 and 24 = 10.1-20% disease present)	94 (90 and 94 = 60.1-100% disease present)	24 (20 and 24 = 10.1-20% disease present)	94 (90 and 94 = 60.1-100% disease present)	24 (20 and 24 = 10.1-20% disease present)	0 (0 = 0% disease present)											
COC=C(C(=O)OC)c1ccccc1COC(=O)n1ccc2ccccc21 [1 (133)]								90 (90 and 94 = 60.1-100% disease present)	90 (90 and 94 = 60.1-100% disease present)	90 (90 and 94 = 60.1-100% disease present)	0 (0 = 0% disease present)	60 (60 = 30.1-60% disease present)	90 (90 and 94 = 60.1-100% disease present)	90+ (90 and 94 = 60.1-100% disease present)	30 (30 = 20.1-30% disease present)			
CO/C=C(/C(=O)OC)c1ccccc1COC(=O)Nc1cccc(C(F)(F)F)c1 [2 (1), (E)-methyl 3-methoxy-2-[2-((3-trifluoromethylphenyl)carbamoyloxymethyl)phenyl]-propenoate]	20 (20 and 24 = 10.1-20% disease present)	10 (10 = 5.1-10% disease present)	5 (5 = 3.1-5% disease present)	10 (10 = 5.1-10% disease present)	60 (60 = 30.1-60% disease present)	10 (10 = 5.1-10% disease present)	0 (0 = 0% disease present)									60 (60 = 30.1-60% disease present)		
COC=C(C(=O)OC)c1ccccc1COC(=O)N(C)c1cccc(C(F)(F)F)c1 [2 (2)]	0 (0 = 0% disease present)	90 (90 and 94 = 60.1-100% disease present)	5 (5 = 3.1-5% disease present)	0 (0 = 0% disease present)	0 (0 = 0% disease present)	0 (0 = 0% disease present)	0 (0 = 0% disease present)									30 (30 = 20.1-30% disease present)		
COC=C(C(=O)OC)c1ccccc1COC(=S)Nc1ccccc1 [5 (6)]								90 (90 and 94 = 60.1-100% disease present)	90 (90 and 94 = 60.1-100% disease present)	60 (60 = 30.1-60% disease present)	90 (90 and 94 = 60.1-100% disease present)	0 (0 = 0% disease present)			0 (0 = 0% disease present)		90 (90 and 94 = 60.1-100% disease present)	
COC=C(C(=O)OC)c1ccccc1COC(=O)Nc1cccc(SC)c1 [10 (1)]								90 (90 and 94 = 60.1-100% disease present)	90 (90 and 94 = 60.1-100% disease present)		90 (90 and 94 = 60.1-100% disease present)	90 (90 and 94 = 60.1-100% disease present)	90 (90 and 94 = 60.1-100% disease present)	90+ (90 and 94 = 60.1-100% disease present)	0 (0 = 0% disease present)			
COC=C(C(=O)OC)c1ccccc1COC(=O)N(C)c1ccccc1[N+](=O)[O-] [15 (2)]	5 (5 = 3.1-5% disease present)	60 (60 = 30.1-60% disease present)	0 (0 = 0% disease present)	0 (0 = 0% disease present)			0 (0 = 0% disease present)											0+ (0 = 0% disease present)
COC=C(C(=O)OC)c1ccccc1COC(=O)N(C)c1cc(F)ccc1F [27 (2)]	0 (0 = 0% disease present)	5 (5 = 3.1-5% disease present)	0 (0 = 0% disease present)	0 (0 = 0% disease present)			0 (0 = 0% disease present)									0 (0 = 0% disease present)		0+ (0 = 0% disease present)
CCN(C(=O)OCc1ccccc1C(=COC)C(=O)OC)c1ccc(F)c(Cl)c1 [104 (3)]	10 (10 = 5.1-10% disease present)	10 (10 = 5.1-10% disease present)		0 (0 = 0% disease present)	0 (0 = 0% disease present)		0 (0 = 0% disease present)									0 (0 = 0% disease present)		0+ (0 = 0% disease present)
COC=C(C(=O)OC)c1ccccc1COC(=O)N(C)c1cccc([N+](=O)[O-])c1F [106 (2)]	30 (30 = 20.1-30% disease present)	60 (60 = 30.1-60% disease present)		0 (0 = 0% disease present)	0 (0 = 0% disease present)		0 (0 = 0% disease present)									0 (0 = 0% disease present)		30+ (30 = 20.1-30% disease present)
CCN(C(=O)OCc1ccccc1C(=COC)C(=O)OC)c1cccc([N+](=O)[O-])c1F [106 (3)]	60 (60 = 30.1-60% disease present)	90 (90 and 94 = 60.1-100% disease present)		0 (0 = 0% disease present)	30 (30 = 20.1-30% disease present)		0 (0 = 0% disease present)									0 (0 = 0% disease present)		60+ (60 = 30.1-60% disease present)
